Entries after “also recorded” stand apart in the source; their conditions may differ.
Legend:
[1] = biological target: T1, tau peptide R3 (Homo sapiens, UniProt P10636); experiment: Endogenous (tyrosine) fluorescence quenching of tau peptide R3; format: binding; details: for n (binding sites): Hill equation
T1 construct: R3 (^306VQIVYK PVDLSK VTSKCG SLGNIH HKPGGG Q^336) and rabbit anti-tau antibody were purchased from MuJin; purchased MuJin
Procedure: The affinity of the synthetic compounds toward tau peptide was evaluated by endogenous fluorescence quenching experiment. The N-galloyl-substituted azacrown (ligand) can quench the endogenous fluorescence of tyrosine residues (306–310, VQIVY) on R3 peptide chain (receptor), if there exists a definite interaction between the ligand and the receptor. With titration of 4GA or 2GA (ligands) into the solution of tau peptide R3 (receptors), the endogenous fluorescence (at 310 nm) of tyrosine residues on R3 peptide chain was gradually quenched (data provided in ESI, Fig. S11). The data were then fitted by the Stern−Volmer formula to give the quenching constants (Kb) (Fig. S12). The quenching constants (Kb) and binding sites (n) of 4GA or 2GA to R3 peptide in the temperatures 25 °C and 37 °C are presented in Table 1.
The structural changes of R3 protein upon binding to 4GA/2GA/GA was documented by fluorescence spectroscopy. Briefly, various concentrations of 4GA/2GA/GA (0, 5, 10, 15, 20, 30, 40, 60, or 80 μM) were added to the 15 μM R3 protein in 50 mM Tris–HCl buffer (pH 7.4) in a 10-mm quartz cuvette. The measurement was carried out by Hitachi F-7000 equipped with a circulating water bath at 25 and 37 °C. The fluorescence spectra of R3 protein were documented from 290 nm to 380 nm with 275 nm excitation. The widths of excitation and emission slit were set at 5 and 10 nm, respectively.
The Stern–Volmer (Formula 4.1) was used to determine the quenching mechanism, either static or dynamic quenching:(4.1) F0/F=1+KSV[Q] where F0 and F are the fluorescence intensity without and with quencher, [Q] means the concentration of quencher, and Ksv is the Stern–Volmer constant.
Furthermore, the binding constant (Kb) and number of the binding sites (n) of quencher on R3 protein could be calculated by Hill (Equation 4.2):(4.2) log[F0−F/F]=logKb+nlog[Q]
The tyrosine fluorescence quenching experiment was carried out to determine the binding ability between inhibitors and R3 protein. […] Furthermore, this experiment is reasonable given the relatively weak fluorescence intensity of 4GA, 2GA, and GA (Figure S10). With titration of inhibitors into the solution of R3 protein, the fluorescence of tyrosine residues was gradually quenched in two temperatures of 25°C and 37°C, implying that 4GA or 2GA can interact with R3.
Fluorescence quenching usually proceeds through either dynamic quenching or static quenching. Dynamic quenching refers to the contact process between excited fluorophore and quencher, while static quenching refers to the formation of fluorophore-quencher complexes. A series of data processing about the fluorescence change of tyrosine residues at 25°C and 37°C was utilized to figure out the binding constant. Compared to the standard Stern-Volmer curves, a minor positive deviation from linearity was observed by plotting F0/F versus concentration, indicating a mixture of dynamic and static patterns (Figure S11). Furthermore, the Hill equation was used to calculate the quenching constant and binding sites of inhibitors on R3 protein (Figure S12).

[2] = test system: SK-N-SH cells; experiment: Cell viability assay (CCK-8); format: cell-based; details: for SK-N-SH cells dead: 80 μM, 24 h incubation; for cytotoxicity (cell viability): SK-N-SH, concentration up to 40 μM
Procedure: However, we still face challenges to improve their therapeutic effects while reducing neurotoxicity. Therefore, a systematic investigation on the cytotoxicity of our new synthetic compounds was carried out. Herein, human neuroblastoma cells (SK-N-SH) were utilized for standard cell viability assay (Cell Counting Kit-8 [CCK-8] assay).
The human neuroblastoma cell (SK-N-SH) was obtained from the Chinese Academy of Sciences stem cell bank. Cells were maintained in Dulbecco’s modified Eagle’s medium (DMEM) supplemented with 10% fetal bovine serum (FBS), 100 U/ml penicillin G, and 100 μg/ml streptomycin at 37 °C in a humidified atmosphere containing 5% CO2.
Cells were plated in 96-well plate at a density of 1 × 10^4 in 100 μl medium per well for 24 h. Then, the FBS-free medium containing the tested compounds at different concentrations was used to replace the old medium. After 24 h incubation, 100 μl of FBS-free DMEM containing 10% CCK-8 was added into each well to replace the old medium. After 2 h incubation, the absorbance at 450 nm was measured by SpectraMax iD3 (Molecular Devices).

[3] = test system: ROS generated by R3 + Cu^2+; experiment: ROS in solution, DCFH fluorescent probe; format: biochemical
Excerpt: In this experiment, the fluorescent probe, 2′,7′-dichlorodihydrofluorescein (DCFH), was used to detect the formation of ROS in solution.
Figure 7 The scavenge ability of 4GA and 2GA on ROS.A, time-dependent experiment for monitoring ROS level in solution at different conditions, using the fluorescent probe 2′,7′-dichlorodihydrofluorescein (DCFH). B, ROS levels in SK-N-SH cells treated with different conditions detected by the fluorescent probe of DCFH in flow cytometry. The data were reported as the mean ± SD, n = 3. Statistical analysis was performed using a one-way ANOVA test, ∗p < 0.05, ∗∗p < 0.01, and ∗∗∗p < 0.001 (n = 3). C, confocal laser scanning microscopy (CLSM) analysis of the intracellular ROS level stained with DCFH. Scale bar represents 12.5 μm. 2GA, (4,10-dimethyl-1,4,7,10-tetraazacyclododecane-1,7-diyl)bis((3,4,5-trihydroxyphenyl)methanone); 4GA, (1,4,7,10-tetraazacyclododecane-1,4,7,10-tetrayl)tetrakis((3,4,5-trihydroxyphenyl)methanone); ROS, reactive oxygen species.

T1 sequence (P10636 623-653 limits assumed): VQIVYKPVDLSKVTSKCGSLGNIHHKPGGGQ

Which “n (binding sites)” value ([1]; 25 °C) does the source give for `O=C(c1cc(O)c(O)c(O)c1)N1CCN(C(=O)c2cc(O)c(O)c(O)c2)CCN(C(=O)c2cc(O)c(O)c(O)c2)CCN(C(=O)c2cc(O)c(O)c(O)c2)CC1` [4GA, (1,4,7,10-tetraazacyclododecane-1,4,7,10-tetrayl)tetrakis((3,4,5-trihydroxyphenyl)methanone)] here?
Its value is 1.33 ± 0.05.

And the “n (binding sites)” value ([1]; 37 °C)?
The value was 1.54 ± 0.07.

And the SK-N-SH cells dead [2]?
Its SK-N-SH cells dead is 40.5%.

And the “cytotoxicity (cell viability)” value ([2]; 24 h)?
The value was “insignificant cytotoxicity”.

And the “DCFH fluorescence (ROS) in R3 + Cu2+ solution” value (from here on “DCFH fluorescence (ROS)”) [3]?
The value was “returning to the level observed in the R3 solution without Cu^2+”.

For `O=C(O)c1cc(O)c(O)c(O)c1` [GA, gallic acid, reference compound], which “binding ability / interaction with R3” value ([1]; 25 °C and 37 °C) is on record?
The value was “no significant interaction between GA and R3; also recorded: negligible binding ability”.

And the “DCFH fluorescence (ROS)” value [3]?
Its value is “could also quench the DCFH fluorescence”.

How did the “cytotoxicity (survival rate of SK-N-SH cells)” value ([2]; dose-dependent test, 24 h) turn out when `CN1CCN(C)CCN(C)CCN(C)CC1` [4ME, 1,4,7,10-tetramethyl-1,4,7,10-tetraazacyclododecane, reference compound] was run?
The value was “negligible”.

With `CN1CCN(C(=O)c2cc(O)c(O)c(O)c2)CCN(C)CCN(C(=O)c2cc(O)c(O)c(O)c2)CC1` [2GA, (4,10-dimethyl-1,4,7,10-tetraazacyclododecane-1,7-diyl)bis((3,4,5-trihydroxyphenyl)methanone)] as the molecule, how does the “n (binding sites)” value ([1]; 25 °C) read?
The value was 1.14 ± 0.05.

And the “n (binding sites)” value ([1]; 37 °C)?
The value was 1.32 ± 0.04.

What about the SK-N-SH cells dead [2] of the same molecule?
The SK-N-SH cells dead was 34.2%.

And the “cytotoxicity (cell viability)” value ([2]; 24 h)?
Its value is “insignificant cytotoxicity”.

And the “DCFH fluorescence (ROS)” value [3]?
The value was “returning to the level observed in the R3 solution without Cu^2+”.
